Reference: US20030040485A1, “alpha/beta-adrenoceptors blockers and angiotensin converting enzyme inhibitors derived from hydroxyphenyl carboxylic acid and alcohol” (priority 2001, published 2003)

Key:
[1] = molecular target: T1, angiotensin converting enzyme (ACE) (Rattus norvegicus, UniProt P47820); assay: ACE activity value on tissue (rat lung membrane, Hip-His-Leu, fluorometric); format: biochemical; conditions: mean of three samples
T1 construct: Centrifuged 250-300 mg lung tissue; from tissue; host or cells: rat lung membrane fraction
T1 sequence (P47820 36-1313): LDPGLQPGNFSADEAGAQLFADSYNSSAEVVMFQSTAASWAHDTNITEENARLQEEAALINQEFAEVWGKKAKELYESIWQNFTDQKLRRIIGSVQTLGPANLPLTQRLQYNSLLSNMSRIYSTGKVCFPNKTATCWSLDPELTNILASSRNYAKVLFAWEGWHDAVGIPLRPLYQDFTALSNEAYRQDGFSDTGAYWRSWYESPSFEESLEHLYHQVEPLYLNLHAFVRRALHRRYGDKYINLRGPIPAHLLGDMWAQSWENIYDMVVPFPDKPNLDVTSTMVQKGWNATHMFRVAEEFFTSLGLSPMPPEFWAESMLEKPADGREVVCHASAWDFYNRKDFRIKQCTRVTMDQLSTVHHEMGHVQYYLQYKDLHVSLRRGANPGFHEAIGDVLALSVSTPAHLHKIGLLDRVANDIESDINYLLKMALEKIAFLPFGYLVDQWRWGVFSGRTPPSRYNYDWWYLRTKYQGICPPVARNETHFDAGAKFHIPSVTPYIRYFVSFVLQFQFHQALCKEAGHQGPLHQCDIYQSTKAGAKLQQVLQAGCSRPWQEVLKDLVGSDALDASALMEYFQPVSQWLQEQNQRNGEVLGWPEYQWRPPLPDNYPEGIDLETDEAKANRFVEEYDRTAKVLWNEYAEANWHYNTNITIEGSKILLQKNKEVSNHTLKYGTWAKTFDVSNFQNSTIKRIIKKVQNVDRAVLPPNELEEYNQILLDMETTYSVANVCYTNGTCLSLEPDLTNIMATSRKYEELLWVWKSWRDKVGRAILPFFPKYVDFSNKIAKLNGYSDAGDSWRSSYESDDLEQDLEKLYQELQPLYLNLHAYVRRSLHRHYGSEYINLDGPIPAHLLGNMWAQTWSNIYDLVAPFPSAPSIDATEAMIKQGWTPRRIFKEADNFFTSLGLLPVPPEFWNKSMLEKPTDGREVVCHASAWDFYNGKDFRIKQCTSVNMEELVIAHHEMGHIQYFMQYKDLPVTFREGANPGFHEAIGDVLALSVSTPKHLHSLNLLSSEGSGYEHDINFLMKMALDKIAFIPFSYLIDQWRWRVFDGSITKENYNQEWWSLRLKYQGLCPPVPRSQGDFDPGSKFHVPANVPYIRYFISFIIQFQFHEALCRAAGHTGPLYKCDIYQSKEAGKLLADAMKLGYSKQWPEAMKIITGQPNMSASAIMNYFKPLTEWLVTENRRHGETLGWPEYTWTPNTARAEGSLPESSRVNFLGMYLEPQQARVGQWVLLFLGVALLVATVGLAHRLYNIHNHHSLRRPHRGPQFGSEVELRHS
Procedure: Centrifuged 250-300 mg lung tissue, 3 ml extracted liquid (10 mmol/L HEPES, 125 mmol/L NaCl, pH7.4) under 12000 g for 20 minutes at 4° C. by Teflon-glass homogenizer, the cell membrane was obtained. The 3 ml homogenized liquid was added into twice, before and after centrifuged. Then the Lowry's method was adopted to determine the protein content in the membrane. Mixing 15 minute of liquid and 30 mmol/L Hip-His-Leu solution at 37° C. Fluorometric was used to determine the Hippurate content. test compounds (10^−8M, 10^−7M, 10^−6M) dissolved in PBS normal saline and used as control group. Then ACE activity inhibition rate was determined.

[2] = molecular target: β1-adrenoceptor (left atrium) (Rattus norvegicus, UniProt P18090); assay: β1-adrenoceptor antagonism, left atrium, pA2; conditions: Schild plot, mean ± SEM of six to eight experiments
[3] = system: blood pressure of normotensive male Wistar rats; assay: Heart rate and blood pressure in living rat (i.v., anaesthetized); format: in vivo; conditions: maximal decrease, 2 mg/kg i.v.
Text: Normotensive Male Wistar rats (NTRs), weighing 200˜300 g were abdominal anaesthetized with pentobarbital sodium. Tracheal was cannulated to maintain normal respiration. Polyethylene tube was inserted into the left femoral vein to facilitate drug administration. A 3-way stopcock was used, with one end comnected to a syringe for drug injection, while the other end was connected to the syringe filled with physiological saline. The latter was used to prevent residual drugs in the polyethylene tube after injection, which would affect experimental accuracy.
The right femoral artery was also inserted with polyethylene, and a 3-way stopcock was used tool, where one end was connected to heparin solution to prevent embolism. The other end was comnected to a Disposable Diaphragm Dome, TA1019, and linked to a pressure transducer (Model P10EZ; Spectramed, Oxnard, Calif., USA). Through an amplifier, a recorder recorded the overall and average arterial pressure; heart rate to evaluate the effect of drug on blood pressure and heart rate. Different concentrations 0.1, 1.0, 2.0, 3.0 mg/kg of test compounds were given to the rats via femoral vein and the differences in the heart rate and blood pressure were compared. Table 2 shown maximal decrease of blood pressure affect of compounds after given 2.0 mg/kg test compounds to the rats.

α1-adrenoceptor (aorta) = assay: α-adrenoceptor antagonism, isolated rat aorta, pA2 vs norepinephrine; parameters: species or system Wistar rat; conditions: Schild plot, mean ± SEM of six to eight experiments
Procedure: Vascular α-adrenoceptor blocking activity was evaluated in the Wistar rat aorta preparation. Isolated rat aorta preparations were mounted in organ bath and suspended in Krebs solution at 37° C. […] or 75 mM KCl was added to the bath medium after a control concentration-response curve to norepinephrine had been obtained. The tissue was exposed to test compounds for 30 min before rechallenging with norepinephrine. Inhibitions were expressed as percentages of the maximum contraction obtained by the challenge of the tissues with norepinephrine. The 70 mM NaCl on 75 mM KCl solution may to replace with equimolar KCl, if necessary.
The methods published by Huang Y C. et. al. in J Cardiovasc Pharmacol.34, pp.10-20 (1999) and Drug Devel Res. 47, 77-89 (1999). Through referenced and modified method to evaluate, test compounds whether have α1-adrenergic and sertoninergic effect.
Isolated Wistar rat aorta preparations were mounted in organ bath and suspended in Krebs solution (NaCl, 118 mM, KCl, 4.8 mM; CaCl,2.5 mM; MgSO4,1.2 mM; K2PO4,1.2 Mm; […] Mm; glucose, 11 mM) at 37° C. under 1 g resting tension.
Upon balancing for 60 minutes, 10^−10-10^−4 M norepinephrine is administered directly from low concentration to high using 0.5 log unit to gradually increase until the maximum reaction is reached, and this act as the control unit. Then different concentrations of the synthetic testing compounds, 10^−7 M, 10^−6 M, or 10^−5M, are used, and upon 30 minutes of reaction, norepinephrine is used again to complete the cumulative dose. The EC50 value of blocking […] may be obtained from observation of the suppressing effects caused by different concentrations of the synthetic testing compound.
The equation is as follows: […]

β1-adrenoceptor (left atrium), sequence (P18090 whole entry): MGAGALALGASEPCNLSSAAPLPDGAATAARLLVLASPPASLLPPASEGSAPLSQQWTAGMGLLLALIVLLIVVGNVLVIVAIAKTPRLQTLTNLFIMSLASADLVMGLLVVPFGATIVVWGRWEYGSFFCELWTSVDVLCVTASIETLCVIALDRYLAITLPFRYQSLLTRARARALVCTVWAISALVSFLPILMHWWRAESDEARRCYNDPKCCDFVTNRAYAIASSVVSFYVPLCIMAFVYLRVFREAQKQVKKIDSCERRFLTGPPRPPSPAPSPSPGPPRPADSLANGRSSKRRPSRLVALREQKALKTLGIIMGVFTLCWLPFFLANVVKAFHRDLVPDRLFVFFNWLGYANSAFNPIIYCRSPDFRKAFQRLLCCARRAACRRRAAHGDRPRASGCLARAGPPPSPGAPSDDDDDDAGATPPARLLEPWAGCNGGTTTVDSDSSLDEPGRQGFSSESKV

Structure (SMILES)	Inhibitory activity of ACE, In Rat lung ([1]; 10^−6M) [%]	Inhibitory activity of ACE, In Rat lung ([1]; 10^−7M) [%]	Inhibitory activity of ACE, In Rat lung ([1]; 10^−8M) [%]	β1 pA2 value, Left atrium [2]	Decrease of blood pressure [3] [mmHg]	α1 pA2 value, Aorta (α1-adrenoceptor (aorta))
CCOC(=O)C(CCc1ccc(OCC(O)CNCCOc2ccccc2OC)cc1)NC(C)C(=O)N1CCCC1C(=O)O (mixture of isomers) [compound 6, Labetapril]	84	72	33	5.31	65 ± 9.2	6.93
CCOC(=O)C(CCc1ccccc1)NC(C)C(=O)N1CCCC1C(=O)OCc1ccc(OCC(O)CNC(C)(C)C)c(OC)c1 (centres unmarked) [compound 7, Vanynolpril]	81	68	31	5.78	55 ± 6.3	–
